Test results published in patent US20070027118A1 (priority 2005, published 2007).
Read-outs that look alike come from different tables or passages of the source.

Experiments:
[1] = target: T1, 11β-hsd-1 enzyme (Homo sapiens, UniProt P28845); assay: biochemical
Description: The 11β-hsd-1 assay was performed in a 100 mM Triethanolamine buffer pH 8.0, containing 200 mM NaCl, 0.02% n-dodecyl β-D-maltoside, 5% glycerol, 5 mM β-mercaptoethanol. A typical reaction for the determination of Kiapp values was carried at R.T. in a Corning® u-bottom 96-well plate and is described as follows: 11β-hsd-1 enzyme (5 nM, final concentration) was pre-incubated in the presence of the inhibitor and NADPH (500 μM, final concentration) for at least 30 minutes in the assay buffer. When pre-incubation was completed, the reaction was initiated by adding the regenerating system (2 mM Glucose-6-Phosphate, 1U/mL Glucose-6-Phosphate dehydrogenase, and 6 mM MgCl2, all the concentration reported are final in the assay buffer), and 3H-cortisone (200 nM, final concentration). After 60 minutes, 60 μL of the assay mixture was transferred to a second 96-well plate and mixed with an equal volume of dimethylsulfoxide to stop the reaction. A 15 μL aliquot from the reaction mixture was loaded into a C-18 column (Polaris C18-A, 50×4.6 mm, 5 μ, 180 Angstrom from Varian) connected to an automated High-throughput Liquid Chromatography instrument developed by Cohesive Technologies Inc, of Franklin, Mass. USA, with a β-RAM model 3 Radio-HPLC detector from IN/US, of Tampa, Fla. USA. The substrate and product peaks were separated by using an isocratic mixture of 43:57 methanol to water (v/v) at a flow rate of 1.0 mL/min.
The initial reaction velocities were measured by stopping the reaction at 60 min and by measuring the area of product formation in the absence and the presence of various concentrations of inhibitors. The Kiapp values were determined using the equation for tight-binding inhibitor developed by Morrison, J. F. (Morrison J. F. Biochim BiophysActa. 1969; 185: 269-86).
The radiolabeled [1,2-3H]-cortisone is commercially available from American Radiolabeled Chemicals Inc of St. Louis, Mo. USA. NADPH, Glucose-6-Phosphate, and Glucose-6-Phosphate dehydrogenase were purchased from Sigma®.
(Morrison J. F. Biochim Biophys Acta. 1969; 185: 269-86).

[2] = target: T1, 11β-hsd-1 enzyme; assay: biochemical; conditions: for inhibition at 0.1 µM: read-out: % Inh @ 0.1 μM
How it was run: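 Human 11β-HSD-1 (5 nM) pre-incubated ≥30 min with inhibitor and 500 μM NADPH in triethanolamine buffer pH 8.0 with NaCl, n-dodecyl β-D-maltoside and β-ME; reaction started with G6P/G6PDH/MgCl2 regenerating system and 200 nM 3H-cortisone, run 60 min, stopped with DMSO. 3H-cortisol and substrate separated by radio-HPLC; percent inhibition from peak areas.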

T1 sequence (P28845 whole entry, species assumed): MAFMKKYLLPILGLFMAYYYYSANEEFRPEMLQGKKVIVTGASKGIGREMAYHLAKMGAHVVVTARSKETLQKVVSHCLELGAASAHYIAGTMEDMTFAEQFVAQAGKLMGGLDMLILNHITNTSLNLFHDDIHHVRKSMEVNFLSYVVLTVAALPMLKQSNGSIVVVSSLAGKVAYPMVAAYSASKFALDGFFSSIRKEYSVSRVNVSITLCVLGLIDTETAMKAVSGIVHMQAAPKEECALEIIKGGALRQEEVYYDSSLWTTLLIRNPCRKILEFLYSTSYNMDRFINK

Structure (SMILES) | Ki [1] | inhibition at 0.1 µM [2] | inhibition at 0.1 µM ([2]; Table 1, inhibitor 0.1 μM) | inhibition ([2]; read-out: % Inh @ 0.1 mM) | inhibition at 100 µM ([2]; Table 2, inhibitor 0.1 mM as printed, read-out: % Inh @ 0.1 mM)
Cc1cc(N)nc(NS(=O)(=O)N2CCN(c3ncc(F)cn3)CC2)c1 [Example 31, N-(6-amino-4-methylpyridin-2-yl)-4-(5-fluoropyrimidin-2-yl)piperazine-1-sulfonamide] | 11 nM | 100% | – | – | –
CC(C)c1cccc(NS(=O)(=O)N2CCN(c3ccc(C#N)cn3)CC2)n1 [Example 32, 4-(5-cyanopyridin-2-yl)-N-(6-isopropylpyridin-2-yl)piper-azine-1-sulfonamide] | 2.4 nM | 97% | – | – | –
Cc1cccc(NS(=O)(=O)N2CCC(c3ccc(C#N)cn3)CC2)n1 [Example 33, 4-(5-cyanopyridin-2-yl)-N-(6-methylpyridin-2-yl)piperidine-1-sulfonamide] | 50 nM | 100% | – | – | –
O=S(=O)(Nc1ccc2ncccc2n1)N1CCN(c2ccc(C(F)(F)F)cn2)CC1 [Example 35, N-1,5-naphthyridin-2-yl-4-[5-(trifluoromethyl)pyridin-2-yl]piperazine-1-sulfonamide] | 10 nM | 100% | – | – | –
Cc1cc(Cl)cnc1N1CCN(S(=O)(=O)Nc2ccc3ncccc3n2)CC1 [Example 37, 4-(5-chloro-3-methylpyridin-2-yl)-N-1,5-naphthyridin-2-ylpiperazine-1-sulfonamide] | 100 nM | 80% | – | – | –
N#Cc1ccc(C2CCN(S(=O)(=O)Nc3cccc(N)n3)CC2)nc1 [Example 39] | 16 nM | 91% | – | – | –
N#Cc1ccc(N2CCCN(S(=O)(=O)Nc3ccc4ccccc4n3)CC2)nc1 [Example 45] | 53 nM | 73% | – | – | –
CCc1cccc(NS(=O)(=O)N2CCC(c3ccc(F)cc3)CC2)n1 [Example 68] | 5.4 nM | 96.6% | – | – | –
CCc1cccc(NS(=O)(=O)N2CCCC(c3ccnc(N4CCOCC4)n3)C2)n1 (centres unmarked) [Example 71, N-(6-ethylpyridin-2-yl)-3-(2-morpholin-4-ylpyrimidin-4-yl)pipendine-1-sulfonamide] | 23 nM | – | – | 92.7% | –
CCc1cccc(NS(=O)(=O)N2CCC(CCc3ccccn3)CC2)n1 [Example 80, N-(6-ethylpyridin-2-yl)-4-(2-pyridin-2-ylethyl)piperidine-1-sulfonamide] | 5.6 nM | – | – | 93.8% | –
CCc1cccc(NS(=O)(=O)N2CCC(c3ccnc(N(C)C)n3)CC2)n1 [Example 81, 4-[2-(dimethylamino)pyrimi-din-4-yl]-N-(6-ethylpyridin-2-yl)piperidine-1-sulfonamide] | 230 nM | – | – | 86.8% | –
CCc1cccc(NS(=O)(=O)N2CCC(CCc3ccnc(NCC4CC4)n3)CC2)n1 [Example 82, 4-(2-{2-[(cyclopropylmethyl)-amino]pyrimidin-4-yl}ethyl)-N-(6-ethylpyridin-2-yl)piperidine-1-sulfonamide] | 11 nM | – | – | 100% | –
Cc1cccc(NS(=O)(=O)N2CCOC(COc3cc(F)cc(F)c3)C2)n1 (centres unmarked) [Example 83, 2-[(35-difluorophenoxy)meth-yl]-N-(6-methylpyridin-2-yl)morpholine-4-sulfonamide] | 110 nM | – | – | 71.2% | –
Cc1cccc(NS(=O)(=O)N2CCCC(c3ccccc3)CC2)n1 (centres unmarked) [Example 84, N-(6-methylpyridin-2-yl)-4-phenylazepane-1-sulfonamide] | 8.2 nM | – | – | 100% | –
Cc1cccc(NS(=O)(=O)N2CCCC(COCC3CC3)CC2)n1 (centres unmarked) [Example 86, 4-[(cyclopropylmethoxy)-methyl]-N-(6-methylpyridin-2-yl)azepane-1-sulfonamide] | 98 nM | – | – | 87.6% | –
Cc1ccc(C2(C)CN(S(=O)(=O)Nc3ccc4ccccc4n3)CCO2)cc1 (centres unmarked) [Example 87, 2-methyl-2-(4-methylphenyl)-N-quinolin-2-ylmorpholine-4-sulfonamide] | 25 nM | – | – | 85.2% | –
CCc1cccc(NS(=O)(=O)N2CCCC(OCc3ccccc3)C2)n1 (centres unmarked) [Example 88, 3-(benzyloxy)-N-(6-ethylpyridin-2-yl)piperidine-1-sulfonamide] | 52 nM | – | – | 77.1% | –
CCCC1CCN(S(=O)(=O)Nc2cccc(CC)n2)CC1 [Example 89, N-(6-ethylpyridin-2-yl)-4-propylpiperidine-1-sulfonamide] | 1 nM | – | – | 100% | –
CCc1cccc(NS(=O)(=O)N2CCCC(COC)CC2)n1 (centres unmarked) [Example 93, N-(6-ethylpyridin-2-yl)-4-(methoxymethyl)azepane-1-sulfonamide] | 110 nM | – | – | 69.7% | –
CCc1cccc(NS(=O)(=O)N2CCCC(COCC3CC3)CC2)n1 (centres unmarked) [Example 95, 4-[(cyclopropylmethoxy)-methyl]-N-(6-ethylpyridin-2-yl)azepane-1-sulfonamide] | 82 nM | – | – | 86.2% | –
CCc1cccc(NS(=O)(=O)N2CCCC(c3ccnc(N4CCCC4)n3)C2)n1 (centres unmarked) [Example 96, N-(6-ethylpyridin-2-yl)-3-(2-pyrrolidin-1-ylpyrimidin-4-yl)piperidine-1-sulfanamide] | 61 nM | – | – | 71.6% | –

Continued, values first:

Ki [1] | inhibition at 0.1 µM [2] | inhibition at 0.1 µM ([2]; Table 1, inhibitor 0.1 μM) | inhibition ([2]; read-out: % Inh @ 0.1 mM) | inhibition at 100 µM ([2]; Table 2, inhibitor 0.1 mM as printed, read-out: % Inh @ 0.1 mM) | Structure (SMILES)
> 1 nM | 100% | – | – | – | C[C@@H]1CN(S(=O)(=O)Nc2cccc(CO)n2)CCN1c1ccc(C#N)cn1 [Example 30]
26 nM | 100% | – | – | – | CC(C)c1cccc(NS(=O)(=O)N2CCC(c3ccc(C#N)cn3)CC2)n1 [Example 34]
31 nM | 100% | – | – | – | N#Cc1ccc(C2CCN(S(=O)(=O)Nc3ccc4ccccc4n3)CC2)nc1 [Example 38]
17 nM | 89% | – | – | – | CCc1cccc(NS(=O)(=O)N2CCCN(c3ccc(C#N)cn3)CC2)n1 [Example 42]
12 nM | 93% | – | – | – | CCc1cccc(NS(=O)(=O)N2CCCN(c3ccc(C(F)(F)F)cn3)CC2)n1 [Example 43]
34 nM | 72% | – | – | – | Cc1cccc(NS(=O)(=O)N2CCCN(c3ccc(C#N)cn3)CC2)n1 [Example 44]
56 nM | – | 85% | – | – | Cc1ccc(C)n1-c1cccc(NS(=O)(=O)N2CCC(c3ccc(F)cc3)CC2)n1 [Example 57, N-[6-(2,5-dimethyl-1H-pyrrol-1-yl)pyridin-2-yl]-4-(4-fluorophenyl)piperidine-1-sulfonamide]
9.6 nM | – | – | 88.4% | – | CCc1cccc(NS(=O)(=O)N2CCC(c3ccc(C(=O)NC4CCCC4)cc3)CC2)n1 [Example 74, N-cyclopentyl-4-(1-{[(6-ethylpyrin-2-yl)amino]sulfonyl}pipendin-4-yl)benzamide]
18 nM | – | – | 90.9% | – | CCc1cccc(NS(=O)(=O)N2CCCC(c3ccccc3)CC2)n1 (centres unmarked) [Example 90, N-(6-ethylpyridin-2-yl)-4-phenylazepane-1-sulfonamide]
45 nM | – | – | 75.9% | – | CCc1cccc(NS(=O)(=O)N2CCC(OCc3ccccc3)CC2)n1 [Example 91, 4-(benzyloxy)-N-(6-ethylpyridin-2-yl)piperidine-1-sulfonamide]
6.3 nM | – | – | 100% | – | O=S(=O)(Nc1ccc2ccccc2n1)N1CCCC(c2ccccc2)CC1 (centres unmarked) [Example 97, 4-phenyl-N-quinolin-2-ylazepane-1-sulfonamide]
28 nM | – | – | 92.4% | – | O=S(=O)(Nc1ccc2ccccc2n1)N1CCCC(COCC2CC2)CC1 (centres unmarked) [Example 98, 4-[(cyclapropylmethoxy)meth-yl]-N-quinolin-2-ylazepane-1-sulfonamide]
63 nM | – | – | 77.6% | – | COCC1CCCN(S(=O)(=O)Nc2ccc3ccccc3n2)CC1 (centres unmarked) [Example 99, 4-(methoxymethyl)-N-quinolin-2-ylazepane-1-sulfonamide]
59 nM | – | – | 90.6% | – | O=S(=O)(Nc1ccc2ccccc2n1)N1CCOC(COc2cc(F)cc(F)c2)C1 (centres unmarked) [Example 100, 2-[(35-difluorophenoxy)meth-yl]-N-quinolin-2-ylmorpholine-4-sulfonamide]
34 nM | – | – | 78.3% | – | CCc1cccc(NS(=O)(=O)N2CCCC(F)(F)C2)n1 [Example 101, N-(6-ethylpyridin-2-yl)-33-difluoropiperidine-1-sulfonamide]
5.4 nM | – | – | – | 100% | CCc1cccc(NS(=O)(=O)N2CCC(Cc3cc(F)ccc3C)CC2)n1 [Example 102, N-(6-ethylpyridin-2-yl)-4-(5-fluoro-2-methylbenzyl)piperidine-1-sulfonamide]
